Reference: EP4756027A1, “DOUBLE-STRANDED RIBONUCLEIC ACID TARGETING PD-L1” (Chia Tai Tianqing Pharmaceutical Group Co., Ltd., priority 2023, dated 2025)

What was measured:
[1] = test system: PD-L1 mRNA; assay: Activity evaluation B in human PD-L1 model mice (liver PD-L1 mRNA, qPCR); assay type: in vivo; conditions: liver tissue, 10 mg/kg subcutaneous; for PD-L1 expression inhibition rate (%), Day 14 after treatment, Avg: day 14, vs PBS group; for PD-L1 expression inhibition rate (%), Day 28 after treatment, Avg: day 28, vs PBS group
Method: (§1) Male human PD-L1 mice (purchased from Shanghai Model Organisms Center, Inc.) aged 6-8 weeks were randomized by weight, with 3 mice in each group. The groups were designated as a PBS group and various sample groups (dsRNA ligand conjugate of the present application).
(§2) Each sample group (dsRNA ligand conjugate of the present application) received a 1 mg/mL solution prepared in 1× PBS (pH 7.4).
Each mouse in the PBS group was subcutaneously injected with 10 mL/kg body weight of 1× PBS (pH 7.4), and each mouse in the sample groups (dsRNA ligand conjugate of the present application) was subcutaneously injected with the corresponding solution prepared as described above. The administration volume for each animal was 10 mL/kg body weight, and the administration dose was 10 mg/kg body weight. The day of the first dose was designated as day 0. The liver was collected on days 14 and 28 after the treatment and preserved in 1.5 mL sterile EP tubes containing 1 mL of animal tissue RNA stabilizing solution (Shanghai Beyotime Biotech Inc., Cat. No. R0118). After being preserved in a refrigerator at 4 °C for 24 h, the liver was transferred to -80 °C for storage. Then, the liver tissue of each mouse was homogenized using a tissue homogenizer, and the total RNA of the liver tissue of each mouse was separately extracted using the TaKaRa MiniBEST Universal RNA Extraction Kit (TAKARA, Cat. No. 9767) according to the procedures for total RNA extraction in the instructions.
The procedures of reverse transcription to synthesize cDNA and fluorescence quantitative PCR, the primers, and the calculation of inhibition rate are shown in Experimental Example 3.

[2] = test system: PD-L1 mRNA; assay: Activity evaluation A in human PD-L1 model mice (liver PD-L1 mRNA, qPCR); assay type: in vivo; conditions: liver tissue, 10 mg/kg subcutaneous single dose, 14 days after treatment, vs PBS group
Method: as §1, §2
Each mouse in the PBS group was subcutaneously injected with 10 mL/kg body weight of 1× PBS (pH 7.4), and each mouse in the sample groups (dsRNA ligand conjugate of the present application) was subcutaneously injected with the corresponding solution prepared as described above. The administration volume for each animal was 10 mL/kg body weight, and the administration dose was 10 mg/kg body weight. The day of the first dose was designated as day 0. All mice were sacrificed 14 days after the treatment, and the liver was collected and preserved in 1.5 mL sterile EP tubes containing 1 mL of animal tissue RNA stabilizing solution (Shanghai Beyotime Biotech Inc., Cat. No. R0118). After being preserved in a refrigerator at 4 °C for 24 h, the liver was transferred to -80 °C for storage. […]
For each reverse transcription reaction system, the cDNA-containing solution described above was taken as the qPCR template, and 20 µL of the qPCR reaction system was prepared using the reagent provided by the ChamQ SYBRqPCR Master Mix kit (Vazyme Biotech Co., Ltd., Cat. No. Q311). […] The qPCR reaction system was placed on a LightCycler 480 fluorescent quantitative PCR system and amplified using the three-step method. […] The real-time fluorescent quantitative PCR system separately acquired the dissolution curves of the target gene PD-L1 and the internal reference gene GAPDH in the PCR amplification products to give the Ct values of the target gene PD-L1 and the internal reference gene GAPDH. […]

Substance | PD-L1 expression inhibition rate (%), Day 14 after treatment, Avg [1] | PD-L1 expression inhibition rate (%), Avg [2] | PD-L1 expression inhibition rate (%), Day 28 after treatment, Avg [1]
M08L01: dsRNA ligand conjugate; modified sense SEQ ID NO 45 with L01 ligand (GalNAc), antisense SEQ ID NO 46 (sense GCTGCATGATCAGCTATGGTA; antisense TACCATAGCTGATCATGCAGCGG; 2'-O-methyl and 2'-fluoro modified, full pattern not given here, GalNAc L01 on sense) | 26.7% | – | –
M02L01: dsRNA ligand conjugate; modified sense SEQ ID NO 33 with L01 ligand (GalNAc), antisense SEQ ID NO 34 (sense ATTTACTGTCACGGTTCCCAA; antisense TTGGGAACCGTGACAGTAATAGC; 2'-O-methyl and 2'-fluoro modified, full pattern not given here, GalNAc L01 on sense) | – | 67.1% | –
M10L01: dsRNA ligand conjugate; modified sense SEQ ID NO 49 with L01 ligand (GalNAc), antisense SEQ ID NO 50 (sense ATTGGTCATCCCAGAACTACA; antisense TGTAGTTCTGGGATGACCAATTC; 2'-O-methyl and 2'-fluoro modified, full pattern not given here, GalNAc L01 on sense) | 64.6% | – | 47.0%
M11L01: dsRNA ligand conjugate; modified sense SEQ ID NO 51 with L01 ligand (GalNAc), antisense SEQ ID NO 52 (sense TATTTATTTTGAGTCTGTG; antisense CACAGACTCAAAATAAATAGG; 2'-O-methyl and 2'-fluoro modified, full pattern not given here, GalNAc L01 on sense) | 66.7% | – | 39.2%
M01L01: dsRNA ligand conjugate; modified sense SEQ ID NO 31 with L01 ligand (GalNAc), antisense SEQ ID NO 32 (sense AGCAATATGACAATTGAATGA; antisense TCATTCAATTGTCATATTGCTAC; 2'-O-methyl and 2'-fluoro modified, full pattern not given here, GalNAc L01 on sense) | – | 59.3% | –
M12L01: dsRNA ligand conjugate; modified sense SEQ ID NO 55 with L01 ligand (GalNAc), antisense SEQ ID NO 56 (sense ATTTACTGTCACGGTTCCCAA; antisense TTGGGAACCGTGACAGTAAATGC; 2'-O-methyl and 2'-fluoro modified, full pattern not given here, GalNAc L01 on sense) | 78.6% | – | 50%
M07L01: dsRNA ligand conjugate; modified sense SEQ ID NO 43 with L01 ligand (GalNAc), antisense SEQ ID NO 44 (sense AATGAAAGGACTCACTTGGTA; antisense TACCAAGTGAGTCCTTTCATTTG; 2'-O-methyl and 2'-fluoro modified, full pattern not given here, GalNAc L01 on sense) | 49.0% | – | –
M03L01: dsRNA ligand conjugate; modified sense SEQ ID NO 35 with L01 ligand (GalNAc), antisense SEQ ID NO 36 (sense CTATTTATTTTGAGTCTGT; antisense ACAGACTCAAAATAAATAGGA; 2'-O-methyl and 2'-fluoro modified, full pattern not given here, GalNAc L01 on sense) | – | 78.2% | –
